# Several values for one entry are separate records, joined by “and”; a condition that tells them apart may be missing. Equal entries are not always repeated.
# Key:
# hGABAA α1β3γ2 [1] = biological target: T1, hGABAA α1β3γ2 (Homo sapiens, UniProt P14867+P18507+P28472); experiment: hGABAA IonFlux HT PAM Assay, α1β3γ2; assay type: cell-based
# Excerpt: (§1) Ligand-gated ion channels targeted were hGABAA α1β3γ2 and hGABAA α2β3γ2.
# (§2) Electrophysiological assays conducted to profile nine (9) compounds for activities on the on channel targets listed above for Positive Allosteric Modulator (PAM) activities using the IonFlux HT electrophysiological platform.
# The parameters measured are described in the Data Analysis section.
# (§3) All wells included a final DMSO concentration of 0.33% including all control wells.
# (§4) All recordings were obtained from a holding potential of −60 mV. The compound addition sequence that was used for all additions was the same for all assays. […] The process was repeated with the next ascending concentration of test compound (FIG. 1).
# (§5) All data were first exported to an Excel compatible data file and then analyzed using Graph Pad Prism software.
# hGABAA α2β3γ2 = hGABAA α2β3γ2 (Homo sapiens, UniProt P18507+P28472+P47869); experiment: hGABAA IonFlux HT PAM Assay, α2β3γ2; assay type: cell-based
# Excerpt: as §1, §2
# The parameters measured are described in the Data Analysis section. […] Open circles represent data that has been excluded from the curve fitting. Where no curve fit was possible, n/c (not calculable) is listed.
# as §3, §4, §5
# hGABAA α1β3γ2 [2] = biological target: T1, hGABAA α1β3γ2; experiment: hGABAA α1β3γ2 IonFlux HT Agonist Assay; assay type: cell-based; conditions: for Normalized Percentage Activation Mean: normalized to EC100 GABA (30 μM)
# Method: Ligand-gated ion channel targets were hGABAA α2β3γ2 and hGABAA α1β3γ2. Electrophysiological assays conducted to profile two compounds for agonist activities on hGABAA α2β3γ2 and seven compounds for agonist activities on hGABAA α1β3γ2 using the IonFlux HT electrophysiological platform.
# The parameters measured are described in the Data Analysis section. […] Note: The test compounds was applied over two (2) ‘experimental patterns’ in increasing concentrations.
# The supplied compound was prepared in DMSO to concentrations that were 300× the final assay concentrations. Aliquots were taken out and diluted 300× into external buffer to give the final assay concentration. At wells included a final DMSO concentration of 0.33% including all control wets.
# All recordings were obtained from a holding potential of −60 mV. The compound addition sequence that was used for all additions was the same for all assays. […] Each test concentration of compound was applied for 2 seconds followed by 60 seconds wash. The process was repeated with the next ascending concentration of test compound. The test compounds were applied over two (2) ‘experimental patterns’ in increasing concentrations (FIG. 11).
# AM data were first exported to an Excel compatible data file and then analyzed using Graph Pad Prism software.
# SNL rats = experiment: Rat spinal nerve ligation (SNL) model of neuropathic pain, Von frey test; assay type: in vivo, SD Rat; conditions: 5 mpk IP; for Von frey test 50% g Threshold, group mean: N 8
# Method: Chung surgery were conducted on anesthetized rats. Rats were habituated in the testing environment for 15 minutes before allodynia measurement (2-3 times). Pre-dose baseline were taken on day 9 post surgery. Rats that don't show allodynic response at this point were excluded. SNL rats with a paw withdrawal threshold >4 g. The animals were grouped according to 50% paw withdrawal threshold (g) and weight. The animals were dosed test articles and vehicle according to the dose protocol. On the testing day (Day 9), rats were dosed with testing articles with 16 min interval between groups. Rats were measured for allodynic response at 0.75, 1.5, 3 h time point post dosing. All values will be expressed as mean±S.E.M. The significance of the differences among groups will be evaluated by two-way ANOVA followed by Dunnett's test using graphpad Prism 6 software. A p value of less than 0.05 is considered statistically significant.
# [3] = system: Mecp2, Shank3, and Fmr1 mutant mice; experiment: animal models of ASD; assay type: in vivo; conditions: three animal models of ASD (Mecp2, Shank3, and Fmr1 mutant mice)
# Excerpt: These findings raise the exciting possibility that GABAA receptor agonists, which attenuate the activity of peripheral mechanosensory neurons, may be useful for treating tactile hypersensitivity and thus anxiety and social impairments in ASD patients. Treating young children with GABAA receptor agonists has traditionally been avoided because of undesirable side effects of these drugs in children. Indeed, there is great reluctance on the part of physicians to use FDA-approved GABAA receptor agonists and positive allosteric modulators because of undesirable side effects, including sedation, and serious complications associated with interference with brain development. […] Importantly, peripherally-restricted GABAA receptor agonists should not promote undesirable side effects observed with all currently used, FDA-approved GABAA receptor agonists that act in the brain.
# [4] = system: rodent models of neuropathic pain; experiment: rodent models of neuropathic pain; assay type: in vivo
# Excerpt: The utility of peripherally-restricted GABAA receptor PAMs, agonists are not limited to treatment of the above indications; the compounds disclosed herein are also useful for treating touch over-reactivity and pain associated with other disease states, including Sensory Processing Disorder (SPD) and fibromyalgia, as well as mechanical allodynia associated with nerve injury, shingles, diabetic neuropathy, chemotherapy-induced neuropathy and other neuropathic pain states.
# [5] = positive modulation of EC20 GABA current
# T1 sequence (P14867 28-456): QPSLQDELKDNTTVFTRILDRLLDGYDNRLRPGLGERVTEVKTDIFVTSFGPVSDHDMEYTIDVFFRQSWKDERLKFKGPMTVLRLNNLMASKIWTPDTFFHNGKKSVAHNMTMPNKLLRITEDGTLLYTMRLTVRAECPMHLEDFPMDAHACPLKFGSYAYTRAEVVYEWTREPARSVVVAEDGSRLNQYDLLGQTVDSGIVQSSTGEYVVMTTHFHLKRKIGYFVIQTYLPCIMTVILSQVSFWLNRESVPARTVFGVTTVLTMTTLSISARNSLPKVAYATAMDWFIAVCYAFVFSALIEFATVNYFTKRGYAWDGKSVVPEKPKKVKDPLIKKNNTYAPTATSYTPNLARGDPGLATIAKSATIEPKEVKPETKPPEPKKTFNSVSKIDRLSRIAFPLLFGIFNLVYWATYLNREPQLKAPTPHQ
# T1 sequence (P28472 26-473): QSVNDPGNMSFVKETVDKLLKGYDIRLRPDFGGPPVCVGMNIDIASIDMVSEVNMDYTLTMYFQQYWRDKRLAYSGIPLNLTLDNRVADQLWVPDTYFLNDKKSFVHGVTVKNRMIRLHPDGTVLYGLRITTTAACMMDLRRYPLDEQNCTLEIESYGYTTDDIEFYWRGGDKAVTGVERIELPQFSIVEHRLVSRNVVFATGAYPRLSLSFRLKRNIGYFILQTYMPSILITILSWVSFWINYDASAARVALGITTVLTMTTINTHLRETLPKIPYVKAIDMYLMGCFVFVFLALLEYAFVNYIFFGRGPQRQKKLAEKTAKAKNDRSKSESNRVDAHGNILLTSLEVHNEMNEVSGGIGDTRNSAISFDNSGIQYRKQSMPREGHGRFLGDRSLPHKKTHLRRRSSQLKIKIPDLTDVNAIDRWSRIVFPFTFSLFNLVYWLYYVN
# T1 sequence (P18507 40-475): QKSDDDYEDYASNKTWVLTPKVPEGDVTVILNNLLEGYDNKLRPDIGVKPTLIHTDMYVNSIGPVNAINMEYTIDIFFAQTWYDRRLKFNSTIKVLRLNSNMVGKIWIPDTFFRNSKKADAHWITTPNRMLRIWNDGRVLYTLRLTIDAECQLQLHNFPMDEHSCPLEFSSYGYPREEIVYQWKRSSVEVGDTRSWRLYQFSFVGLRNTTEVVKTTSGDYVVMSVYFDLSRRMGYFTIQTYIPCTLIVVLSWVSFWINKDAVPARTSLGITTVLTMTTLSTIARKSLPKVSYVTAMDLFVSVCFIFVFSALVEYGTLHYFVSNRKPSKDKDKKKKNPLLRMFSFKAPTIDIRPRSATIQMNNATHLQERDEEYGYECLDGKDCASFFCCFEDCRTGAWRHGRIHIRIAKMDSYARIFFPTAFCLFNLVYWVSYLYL
# hGABAA α2β3γ2, sequence (P47869 29-451): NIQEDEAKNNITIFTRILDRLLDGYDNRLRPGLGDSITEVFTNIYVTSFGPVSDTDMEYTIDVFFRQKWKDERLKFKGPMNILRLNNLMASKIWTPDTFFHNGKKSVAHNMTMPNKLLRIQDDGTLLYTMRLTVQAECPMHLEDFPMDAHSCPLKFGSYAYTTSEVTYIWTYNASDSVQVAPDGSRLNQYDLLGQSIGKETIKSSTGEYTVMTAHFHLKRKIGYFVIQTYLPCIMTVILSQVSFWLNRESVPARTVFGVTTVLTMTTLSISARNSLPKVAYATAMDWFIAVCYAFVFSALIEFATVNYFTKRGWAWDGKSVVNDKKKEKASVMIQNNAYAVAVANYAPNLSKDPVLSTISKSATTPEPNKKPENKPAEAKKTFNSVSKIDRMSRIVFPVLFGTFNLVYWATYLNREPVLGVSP
# hGABAA α2β3γ2, sequence (P28472 26-473): as the sequence (P28472 26-473) above
# hGABAA α2β3γ2, sequence (P18507 40-475): as the sequence (P18507 40-475) above
structure (smiles),measurement,setting,value
O=C(O)C1=CCNCC1 [Isoguvacine],(%) Control mean,hGABAA α1β3γ2 [1]; 0.001 μM + EC20 GABA,103.6 % Control
same,(%) Control n1,hGABAA α1β3γ2 [1]; 0.001 μM + EC20 GABA,99.0 % Control
same,(%) Control n2,hGABAA α1β3γ2 [1]; 0.001 μM + EC20 GABA,108.2 % Control
same,(%) Control mean,hGABAA α1β3γ2 [1]; 0.01 μM + EC20 GABA,109.8 % Control
same,(%) Control n1,hGABAA α1β3γ2 [1]; 0.01 μM + EC20 GABA,108.8 % Control
same,(%) Control n2,hGABAA α1β3γ2 [1]; 0.01 μM + EC20 GABA,110.8 % Control
same,(%) Control mean,hGABAA α1β3γ2 [1]; 0.1 μM + EC20 GABA,113.7 % Control
same,(%) Control n1,hGABAA α1β3γ2 [1]; 0.1 μM + EC20 GABA,110.0 % Control
same,(%) Control n2,hGABAA α1β3γ2 [1]; 0.1 μM + EC20 GABA,117.4 % Control
same,(%) Control mean,hGABAA α1β3γ2 [1]; 1 μM + EC20 GABA,119.8 % Control
same,(%) Control n1,hGABAA α1β3γ2 [1]; 1 μM + EC20 GABA,124.5 % Control
same,(%) Control n2,hGABAA α1β3γ2 [1]; 1 μM + EC20 GABA,115.2 % Control
same,(%) Control mean,hGABAA α1β3γ2 [1]; 10 μM + EC20 GABA,73.0 % Control
same,(%) Control n1,hGABAA α1β3γ2 [1]; 10 μM + EC20 GABA,76.1 % Control
same,(%) Control n2,hGABAA α1β3γ2 [1]; 10 μM + EC20 GABA,69.9 % Control
same,(%) Control mean,hGABAA α1β3γ2 [1]; 100 μM + EC20 GABA,8.0 % Control
same,(%) Control n1,hGABAA α1β3γ2 [1]; 100 μM + EC20 GABA,7.6 % Control
same,(%) Control n2,hGABAA α1β3γ2 [1]; 100 μM + EC20 GABA,8.3 % Control
same,Mean Maximal Effect (% of Control),hGABAA α1β3γ2 [1]; normalized to baseline peak current induced by EC20 GABA (1 μM) for 2 seconds,120 % of Control
same,Estimated EC50,hGABAA α1β3γ2 [1]; [5],n/c*
same,(%) Control mean,hGABAA α2β3γ2; 0.001 μM + EC20 GABA,95.4 % Control
same,(%) Control n1,hGABAA α2β3γ2; 0.001 μM + EC20 GABA,94.5 % Control
same,(%) Control n2,hGABAA α2β3γ2; 0.001 μM + EC20 GABA,96.3 % Control
same,(%) Control mean,hGABAA α2β3γ2; 0.01 μM + EC20 GABA,93.2 % Control
same,(%) Control n1,hGABAA α2β3γ2; 0.01 μM + EC20 GABA,90.4 % Control
same,(%) Control n2,hGABAA α2β3γ2; 0.01 μM + EC20 GABA,96.0 % Control
same,(%) Control mean,hGABAA α2β3γ2; 0.1 μM + EC20 GABA,88.9 % Control
same,(%) Control n1,hGABAA α2β3γ2; 0.1 μM + EC20 GABA,85.9 % Control
same,(%) Control n2,hGABAA α2β3γ2; 0.1 μM + EC20 GABA,91.8 % Control
same,(%) Control mean,hGABAA α2β3γ2; 1 μM + EC20 GABA,92.3 % Control
same,(%) Control n1,hGABAA α2β3γ2; 1 μM + EC20 GABA,95.4 % Control
same,(%) Control n2,hGABAA α2β3γ2; 1 μM + EC20 GABA,89.3 % Control
same,(%) Control mean,hGABAA α2β3γ2; 10 μM + EC20 GABA,45.7 % Control
same,(%) Control n1,hGABAA α2β3γ2; 10 μM + EC20 GABA,55.0 % Control
same,(%) Control n2,hGABAA α2β3γ2; 10 μM + EC20 GABA,36.4 % Control
same,(%) Control mean,hGABAA α2β3γ2; 100 μM + EC20 GABA,6.9 % Control
same,(%) Control n1,hGABAA α2β3γ2; 100 μM + EC20 GABA,8.4 % Control
same,(%) Control n2,hGABAA α2β3γ2; 100 μM + EC20 GABA,5.3 % Control
same,Mean Maximal Effect (% of Control),hGABAA α2β3γ2; normalized to baseline peak current induced by EC20 GABA (0.8 μM) for 2 seconds,95 % of Control
same,Estimated EC50,hGABAA α2β3γ2; [5],n/c*
same,Normalized Percentage Activation Mean,hGABAA α1β3γ2 [2]; 0.3 μM,1.61%
same,Normalized Percentage Activation Mean,hGABAA α1β3γ2 [2]; 1 μM,2.18%
same,Normalized Percentage Activation Mean,hGABAA α1β3γ2 [2]; 3 μM,6.83%
same,Normalized Percentage Activation Mean,hGABAA α1β3γ2 [2]; 10 μM,30.46%
same,Normalized Percentage Activation Mean,hGABAA α1β3γ2 [2]; 30 μM,65.63%
same,Normalized Percentage Activation Mean,hGABAA α1β3γ2 [2]; 100 μM,84.77%
same,Normalized Percentage Activation Mean,hGABAA α1β3γ2 [2]; 300 μM,92.72%
same,Normalized Percentage Activation Mean,hGABAA α1β3γ2 [2]; 10000 μM,93.46%
same,EC50,"hGABAA α1β3γ2 [2]; agonist activation of channel currents, read-out: Estimated EC50",19.7 µM
same,"Von frey test 50% g Threshold, group mean","SNL rats; 0 Hour (pre-dose baseline), 5 mg/kg",2.32 g and 2.3 ± 0.33 g
same,"50% g Threshold, individual animal","SNL rats; 0 Hour (pre-dose baseline, day 9 post surgery), 5 mg/kg",0.99 g and 1.10 g and 1.85 g and 2.23 g and 2.81 g and 3.00 g and 3.31 g (2×)
same,"50% g Threshold, individual animal","SNL rats; 0.75 Hour post dosing, 5 mg/kg",1.31 g (2×) and 2.37 g (2×) and 2.81 g and 1.56 g (2×) and 0.99 g
same,"Von frey test 50% g Threshold, group mean","SNL rats; 0.75 Hour, 5 mg/kg",1.78 g and 1.8 ± 0.23 g
same,"50% g Threshold, individual animal","SNL rats; 1.5 Hour post dosing, 5 mg/kg",1.85 g (3×) and 2.37 g and 0.82 g and 2.81 g and 1.56 g and 2.64 g
same,"Von frey test 50% g Threshold, group mean","SNL rats; 1.5 Hour, 5 mg/kg",1.97 g and 2.0 ± 0.23 g
same,"50% g Threshold, individual animal","SNL rats; 3 Hour post dosing, 5 mg/kg",2.81 g and 6.74 g and 7.91 g and 3.33 g and 5.15 g and 4.34 g and 5.77 g and 3.31 g
same,"Von frey test 50% g Threshold, group mean",SNL rats; 3 Hour,4.9 ± 0.64 g
same,analgesia effect,SNL rats; 3 hour time point,significant analgesia effect
same,"effect on tactile hypersensitivity, anxiety-like behaviors and social impairments",[3],"improves tactile hypersensitivity, anxiety-like behaviors and social impairments"
same,effect on tactile over-reactivity (mechanical allodynia),[4],reduces tactile over-reactivity (mechanical allodynia)

# From patent publication US12084451B2, “Compositions and methods for reducing tactile dysfunction, anxiety, and social impairment” (President and Fellows of Harvard College, priority 2018, dated 2024)
